Drawing on PubChem BioAssay AID330 (DTP/NCI, 2004), this text covers T/C for 20 molecules.

The assay concerns P388 leukemia ip, CD2F1 mice, survival T/C. Nature of the assay: NCI In Vivo Anticancer Drug Screen. Data for tumor model P388 Leukemia (intraperitoneal) in CD2F1 (CDF1) mice. The following applies: endpoint: median survival time, higher = longer survival. In outline: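 Mice carrying the transplanted tumor received test compound or vehicle. Survival was recorded in each group, and the value is the treated-group measurement divided by that of the vehicle-treated control group.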

Where [1] appears, read: dose: 100.0 mg/kg/injection, schedule: Q01DX001 (ip), vehicle: saline with Tween-80.
Setting [2] is: dose: 400.0 mg/kg/injection, schedule: Q01DX001 (ip), vehicle: saline with Tween-80.
Setting [3] is: dose: 60.0 mg/kg/injection, schedule: Q01DX005 (ip), vehicle: Klucel (hydroxypropylcellulose) (HPC).
[4] abbreviates: dose: 120.0 mg/kg/injection, schedule: Q01DX005 (ip), vehicle: Klucel (hydroxypropylcellulose) (HPC).
The mark [5] stands for this setting: dose: 50.0 mg/kg/injection, schedule: Q01DX009 (ip), vehicle: saline with Tween-80.
The mark [6] stands for this setting: dose: 100.0 mg/kg/injection, schedule: Q01DX009 (ip), vehicle: saline with Tween-80.
[7] abbreviates: dose: 200.0 mg/kg/injection, schedule: Q01DX009 (ip), vehicle: saline with Tween-80.
[8] abbreviates: dose: 60.0 mg/kg/injection, schedule: Q01DX005 (ip), vehicle: saline with Tween-80.
Where [9] appears, read: dose: 120.0 mg/kg/injection, schedule: Q01DX005 (ip), vehicle: saline with Tween-80.
Where [10] appears, read: dose: 240.0 mg/kg/injection, schedule: Q01DX005 (ip), vehicle: saline with Tween-80.

“And” between values parts separate entries of the source, which are not always exact repeats. Identical values can stand only once. Inconclusive results and toxic doses are left out.

For the molecule `CCOP(=O)(OCC)/C(C#N)=C\c1ccc(N(C)C)cc1`, the T/C under setting [1] is 100 % of control; the T/C (dose: 200.0 mg/kg/injection, schedule: Q01DX001 (ip), vehicle: saline with Tween-80) is 104 % of control; the T/C under setting [2] was 100 % of control.

In the case of `O=C(Nc1c(Cl)cccc1Cl)Oc1c(Br)cc(Br)cc1Br`, the T/C runs as follows: under setting [3], 108 % of control; under setting [4], 101 % of control; (dose: 240.0 mg/kg/injection, schedule: Q01DX005 (ip), vehicle: Klucel (hydroxypropylcellulose) (HPC)) 102 % of control.

As to `C/C=C(\C)c1cc(=O)c2c(C)cc3c(c2o1)C(=O)c1c(O)c(C2CC(C)(N(C)C)C(O)C(C)O2)cc(C2CC(N(C)C)C(O)C(C)O2)c1C3=O` (stereo not drawn), the T/C (dose: 0.31 mg/kg/injection, schedule: Q01DX009 (ip), vehicle: saline) is 100 % of control; the T/C (dose: 0.62 mg/kg/injection, schedule: Q01DX009 (ip), vehicle: saline) was 153 % of control; the T/C (dose: 1.25 mg/kg/injection, schedule: Q01DX009 (ip), vehicle: saline) was 91 % of control; the T/C (dose: 2.0 mg/kg/injection, schedule: Q01DX009 (ip), vehicle: Klucel (hydroxypropylcellulose) (HPC)) was 118 % of control; the T/C (dose: 2.0 mg/kg/injection, schedule: Q01DX009 (ip), vehicle: saline) is 154 % of control; the T/C (dose: 3.0 mg/kg/injection, schedule: Q01DX009 (ip), vehicle: saline) is 109 % of control. The T/C by setting is: (dose: 5.0 mg/kg/injection, schedule: Q01DX009 (ip), vehicle: saline) 94 % of control; (dose: 6.25 mg/kg/injection, schedule: Q01DX009 (ip), vehicle: saline with Tween-80) 95 % of control.

For the molecule `c1nnc(NCNc2nncs2)s1`, the T/C was 240 % of control (dose: 100.0 mg/kg/injection, schedule: Q04DX003 (ip), vehicle: saline) and 109 % of control (dose: 200.0 mg/kg/injection, schedule: Q04DX003 (ip), vehicle: saline).

Turning to `C(=N/NC1=NCCN1)/c1ccnc2ccccc12`, the T/C is 100 % of control (dose: 15.0 mg/kg/injection, schedule: Q01DX005 (ip), vehicle: saline); 98 % of control (dose: 30.0 mg/kg/injection, schedule: Q01DX005 (ip), vehicle: saline); 101 % of control and 92 % of control (dose: 60.0 mg/kg/injection, schedule: Q01DX005 (ip), vehicle: saline).

For `CC(=O)c1c(C)[nH]c2c1[nH]c1ccccc12`, the T/C under setting [3] was 93 % of control and the T/C under setting [4] was 101 % of control.

As for `Cc1ccc(N=C(c2ccccc2)N(O)c2ccc(Cl)cc2)cc1Cl`, the T/C runs as follows: (dose: 50.0 mg/kg/injection, schedule: Q01DX005 (ip), vehicle: Klucel (hydroxypropylcellulose) (HPC)) 100 % of control; (dose: 100.0 mg/kg/injection, schedule: Q01DX005 (ip), vehicle: Klucel (hydroxypropylcellulose) (HPC)) 97 % of control; (dose: 200.0 mg/kg/injection, schedule: Q01DX005 (ip), vehicle: Klucel (hydroxypropylcellulose) (HPC)) 94 % of control.

On to `O=C(Nc1ccccc1)Oc1cccc(/C=N/S(=O)(=O)c2cccc([N+](=O)[O-])c2)c1`, for which the T/C runs as follows: under setting [5], 93 % of control; under setting [6], 97 % of control; under setting [7], 98 % of control.

In the case of `CCN=C1C=CC(=C(c2ccc(N(CC)CC)cc2)c2ccc(N(CC)CC)cc2)c2ccccc21`, the T/C was 110 % of control and 113 % of control (dose: 6.25 mg/kg/injection, schedule: Q01DX005 (ip), vehicle: saline with Tween-80); 118 % of control (2×) and 119 % of control (dose: 12.5 mg/kg/injection, schedule: Q01DX005 (ip), vehicle: saline with Tween-80); 115 % of control (dose: 25.0 mg/kg/injection, schedule: Q01DX005 (ip), vehicle: saline with Tween-80).

Turning to `c1cc2nc(-c3ccc4cc(C5=NCCN5)[nH]c4c3)[nH]c2cc1C1=NCCN1`, the T/C reads like this: (dose: 12.5 mg/kg/injection, schedule: Q01DX005 (ip), vehicle: saline) 106 % of control; (dose: 25.0 mg/kg/injection, schedule: Q01DX005 (ip), vehicle: saline) 106 % of control; (dose: 50.0 mg/kg/injection, schedule: Q01DX005 (ip), vehicle: saline) 99 % of control.

As to `[Cl][Sn]([O][Sn]([Cl])([c]1ccccc1)[CH]1CCCCC1)([c]1ccccc1)[CH]1CCCCC1` (stereo not drawn), the T/C (dose: 0.19 mg/kg/injection, schedule: Q01DX005 (ip), vehicle: saline) was 100 % of control; the T/C (dose: 0.39 mg/kg/injection, schedule: Q01DX005 (ip), vehicle: saline) was 105 % of control; the T/C (dose: 0.79 mg/kg/injection, schedule: Q01DX005 (ip), vehicle: saline) is 117 % of control.

Consider `CCN(CC)P(Cl)(C1=C(Cl)C(=O)C(C#N)=C(C#N)C1=O)(N(CC)CC)N(CC)CC`, for which the T/C is, setting by setting: under setting [1], 89 % of control; under setting [2], 89 % of control.

Take `O=c1[nH]c2ccccc2n1C1CCN(CC(O)C2COc3ccccc3O2)CC1` (stereo not drawn): the T/C is, setting by setting: under setting [5], 94 % of control; under setting [6], 106 % of control; under setting [7], 103 % of control.

Take `CCCCCCCCCc1ccc(OC(C)OCCOCCOCC)cc1` (stereo not drawn): the T/C is, setting by setting: under setting [8], 98 % of control; under setting [9], 98 % of control; under setting [10], 98 % of control.

As for `CC(=O)c1ccc(Cl)c(N=Cc2cc(Cl)cc(Cl)c2O)c1`, the T/C (dose: 50.0 mg/kg/injection, schedule: Q01DX009 (ip), vehicle: Klucel (hydroxypropylcellulose) (HPC)) is 91 % of control; the T/C (dose: 100.0 mg/kg/injection, schedule: Q01DX009 (ip), vehicle: Klucel (hydroxypropylcellulose) (HPC)) was 93 % of control; the T/C (dose: 200.0 mg/kg/injection, schedule: Q01DX009 (ip), vehicle: Klucel (hydroxypropylcellulose) (HPC)) is 98 % of control.

For `CCC(C)NCCNCCNC(C)CC` (stereo not drawn), the T/C runs as follows: (dose: 6.25 mg/kg/injection, schedule: Q01DX009 (ip), vehicle: saline) 100 % of control; (dose: 12.5 mg/kg/injection, schedule: Q01DX009 (ip), vehicle: saline) 100 % of control; (dose: 25.0 mg/kg/injection, schedule: Q01DX009 (ip), vehicle: saline) 100 % of control.

`O=S(=O)(O)N(O)c1ccccc1`: the T/C reads like this: (dose: 25.0 mg/kg/injection, schedule: Q01DX001 (ip), vehicle: saline) 103 % of control and 97 % of control; (dose: 50.0 mg/kg/injection, schedule: Q01DX001 (ip), vehicle: saline) 113 % of control and 95 % of control; (dose: 100.0 mg/kg/injection, schedule: Q01DX001 (ip), vehicle: saline) 106 % of control and 124 % of control; (dose: 200.0 mg/kg/injection, schedule: Q01DX001 (ip), vehicle: saline) 94 % of control.

For `COc1cc(N=Nc2c(Cl)cc([N+](=O)[O-])cc2Cl)c(OC)cc1N=Nc1ccc(N)nc1N`, the T/C is, setting by setting: (dose: 50.0 mg/kg/injection, schedule: Q01DX005 (ip), vehicle: saline with Tween-80) 99 % of control; (dose: 100.0 mg/kg/injection, schedule: Q01DX005 (ip), vehicle: saline with Tween-80) 100 % of control; (dose: 200.0 mg/kg/injection, schedule: Q01DX005 (ip), vehicle: saline with Tween-80) 101 % of control.

With `COC(=O)C1=[N+]([O-])c2ccccc2C1C(O)C(=O)OC` (stereo not drawn), the T/C reads like this: under setting [8], 98 % of control; under setting [9], 93 % of control; under setting [10], 98 % of control.

As to `Cc1ccc(S(=O)/C=C/c2ccccc2)cc1` (stereo not drawn), the T/C was 103 % of control (dose: 50.0 mg/kg/injection, schedule: Q01DX009 (ip), vehicle: other); 97 % of control (dose: 100.0 mg/kg/injection, schedule: Q01DX009 (ip), vehicle: other); 101 % of control (dose: 200.0 mg/kg/injection, schedule: Q01DX009 (ip), vehicle: other).
